Measurements reported in patent US7713994B2 (Wyeth LLC, priority 2005, dated 2010).
Where two headings read alike, the source gives them in different places.

How the values were obtained:
[1] = system: SK-UT-1B; experiment: In Vitro Cellular Activity (Table III), SK-UT-1B; assay type: cell-based; conditions: SK-UT-1B cells
[2] = target: T1, cyclin E/CDK2 enzyme (Homo sapiens, UniProt P24941); experiment: CDK2 ELISA kinase assay (phospho-Rb ser 795 detection); assay type: biochemical; conditions: In Vitro Enzyme Assays, read-out: CDK2 IC50
T1 construct: made in house; host or cells: Sf9 insect cells, recombinant baculovirus
How it was run: (§1)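 Wells were coated overnight with GST-Rb C-terminal fragment, then blocked. Compound (10 ug/ml final) and cyclin/CDK enzyme from baculovirus-infected Sf9 cells with 200 μM ATP reacted 1 h at 30° C. Ser795 phosphorylation was detected by ELISA at 450 nm.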

[3] = target: T2, cyclin D1/cdk 4 enzyme (Homo sapiens, UniProt P11802); experiment: CDK4 ELISA kinase assay (phospho-Rb ser 795 detection); assay type: biochemical; conditions: In Vitro Enzyme Assays, 200 μM ATP, read-out: CDK4 IC50
T2 construct: made in house; host or cells: Sf9 insect cells, recombinant baculovirus
T2 sequence (P11802 whole entry, species assumed): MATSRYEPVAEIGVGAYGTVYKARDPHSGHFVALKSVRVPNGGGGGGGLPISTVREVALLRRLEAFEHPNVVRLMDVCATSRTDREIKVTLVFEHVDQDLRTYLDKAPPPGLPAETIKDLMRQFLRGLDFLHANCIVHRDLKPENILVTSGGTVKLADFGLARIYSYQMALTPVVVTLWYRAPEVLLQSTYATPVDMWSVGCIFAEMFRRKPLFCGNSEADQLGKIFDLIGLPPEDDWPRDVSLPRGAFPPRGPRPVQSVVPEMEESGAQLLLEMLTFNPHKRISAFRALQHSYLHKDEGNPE
T2 sequence (P24385 whole entry partner, species assumed): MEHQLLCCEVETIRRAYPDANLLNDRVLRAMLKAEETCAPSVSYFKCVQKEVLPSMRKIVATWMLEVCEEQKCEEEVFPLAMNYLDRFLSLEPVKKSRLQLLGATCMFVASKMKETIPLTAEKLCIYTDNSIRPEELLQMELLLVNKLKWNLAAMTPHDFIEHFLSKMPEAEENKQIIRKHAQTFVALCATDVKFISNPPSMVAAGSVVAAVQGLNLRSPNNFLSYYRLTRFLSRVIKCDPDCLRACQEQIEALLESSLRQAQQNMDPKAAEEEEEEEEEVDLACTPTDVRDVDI
How it was run: as §1

[4] = system: LoVo; experiment: Cytotoxicity assay (SRB), LoVo; assay type: cell-based; conditions: LoVo cells, SRB, three days, read-out: In Vitro Cellular Activity IC50 LOVO
How it was run: (§2)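 Plate cells, let them attach overnight, add compound dilutions in RPMI 1640/5% FBS, and incubate 3 days (BT474 6 days). Then fix with TCA, stain with SRB, dissolve the dye in Tris and read at 540 nm.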

[5] = system: HCT-116; experiment: Cytotoxicity assay (SRB), HCT-116; assay type: cell-based; conditions: HCT116 cells, SRB, three days, read-out: In Vitro Cellular Activity IC50 HCT116
How it was run: as §2

[6] = target: T3, cyclin B/CDK1 enzyme (Homo sapiens, UniProt P06493); experiment: CDK1 ELISA kinase assay (phospho-Rb ser 795 detection); assay type: biochemical; conditions: In Vitro Enzyme Assays, read-out: CDK1 IC50
T3 construct: purchased New England BioLabs; host or cells: Sf9 insect cells, recombinant baculovirus
T3 sequence (P06493 whole entry): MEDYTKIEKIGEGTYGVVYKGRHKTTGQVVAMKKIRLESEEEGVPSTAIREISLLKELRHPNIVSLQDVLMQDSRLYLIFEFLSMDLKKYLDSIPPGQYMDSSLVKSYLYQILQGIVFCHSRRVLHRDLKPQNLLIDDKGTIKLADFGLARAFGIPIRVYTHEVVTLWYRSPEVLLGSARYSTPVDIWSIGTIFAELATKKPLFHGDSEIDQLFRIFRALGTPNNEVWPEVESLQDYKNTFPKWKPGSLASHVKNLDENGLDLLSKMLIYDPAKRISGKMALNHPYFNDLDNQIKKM
T3 sequence (P14635 whole entry partner): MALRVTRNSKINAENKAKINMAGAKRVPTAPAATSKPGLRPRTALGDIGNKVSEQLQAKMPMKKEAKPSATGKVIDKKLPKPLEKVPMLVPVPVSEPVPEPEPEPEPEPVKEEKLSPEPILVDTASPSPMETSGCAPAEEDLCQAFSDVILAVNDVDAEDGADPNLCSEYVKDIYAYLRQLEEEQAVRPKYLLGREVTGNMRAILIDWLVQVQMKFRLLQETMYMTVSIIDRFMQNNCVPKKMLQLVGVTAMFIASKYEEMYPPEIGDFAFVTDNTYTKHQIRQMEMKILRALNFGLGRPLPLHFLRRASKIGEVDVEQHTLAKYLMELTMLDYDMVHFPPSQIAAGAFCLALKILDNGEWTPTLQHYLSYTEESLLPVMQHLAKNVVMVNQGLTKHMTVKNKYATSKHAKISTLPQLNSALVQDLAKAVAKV
How it was run: as §1

[7] = system: MCF-7; experiment: Cytotoxicity assay (SRB), MCF-7; assay type: cell-based; conditions: MCF-7 cells, SRB, three days, read-out: In Vitro Cellular Activity IC50 MCF-7
How it was run: as §2

[8] = system: BT474; experiment: Cytotoxicity assay (SRB), BT474; assay type: cell-based; conditions: BT474 cells, SRB, 6 days, read-out: In Vitro Cellular Activity IC50 BT474
How it was run: as §2

| Molecule | IC50 ([1]; Homo sapiens, Skut1B) [µM] | IC50 [2] [µM] | IC50 [3] [µM] | IC50 [6] [µM] | melting point [°C] | IC50 [1] [µM] | IC50 ([4]; Homo sapiens, LoVo, 72 h) [µM] | IC50 ([5]; Homo sapiens, HCT-116, 72 h) [µM] | IC50 ([7]; Homo sapiens, MCF7, 72 h) [µM] | IC50 ([8]; Homo sapiens, BT-474, 144 h) [µM] | IC50 [4] [µM] | IC50 [5] [µM] | IC50 [7] [µM] | IC50 [8] [µM] |
| --- | --- | --- | --- | --- | --- | --- | --- | --- | --- | --- | --- | --- | --- | --- |
| O=C1NC(=O)c2ccccc2/C1=C/Nc1ccc(N2CCOCC2)cc1 [Example 6, (4Z)-4-{[(4-Morpholin-4-ylphenyl)amino]methylene}isoquinoline-1,3(2H,4H)-dione] | 18.3 | > 29 | > 50 | > 29 |  |  | > 50 | > 50 | > 50 | > 50 |  |  |  |  |
| COc1ccc(/C=C2/C(=O)NC(=O)c3ccccc32)cc1OC [Example 12, (4E)-4-(3,4-dimethoxybenzylidene)isoquinoline-1,3(2H,4H)-dione] | > 32 | > 32 | > 50 | > 32 |  |  | 5.4 | 2.1 | 14.5 | > 50 |  |  |  |  |
| O=C1NC(=O)c2ccccc2/C1=C/Nc1ccc(CN2CCCCC2)cc1 [Example 13, (4Z)-4-({[4-(Piperidin-1-ylmethyl)phenyl]amino}methylene)isoquinoline-1,3(2H,4H)-dione] | 11.3 |  | 7.9 | > 28 | 185 to 186 |  | 15 | 8.6 | 7.3 | 27 |  |  |  |  |
| Cn1ccnc1Sc1ccc(N/C=C2\C(=O)NC(=O)c3ccccc32)cc1Cl [Example 14, (4Z-4-[{3-Chloro-4[(1-methyl-1H-imidazole-2-uy)thio]phenyl}amino)methylene]isoquinoline-1,3(2H,4H)-dione] | 18.4 |  |  |  | 264 to 265 |  | > 50 | 8.7 | > 50 | 38 |  |  |  |  |
| O=C1NC(=O)c2ccccc2/C1=C/Nc1cccc(CN2CCCCC2)c1 [Example 16, (4Z)-4-({[3-(Piperidin-1-ylmethyl)phenyl]amino}methylene)isoquinoline-1,3(2H,4H)-dione] | 18.5 |  |  |  | 173 to 174 |  | 14 | 14 | 19 | 45 |  |  |  |  |
| O=C1NC(=O)c2ccccc2/C1=C/Nc1cccc(CN2CCCCCC2)c1 [Example 17, (4Z)-4-({[3-(Azepan-1-ylmethyl)phenyl]amino}methylene)isoquinoline-1,3(2H,4H)-dione] | 16 |  |  |  | 116 to 117 |  | 19 | 14 | 20 | 30 |  |  |  |  |
| O=C1NC(=O)c2ccccc2/C1=C/Nc1cccc(CN2CCCC2)c1 [Example 18, (4Z)-4-({[3-(Pyrrolidin-1-ylmethyl)phenyl]amino}methylene)isoquinoline-1,3(2H,4H)-dione] | 15.8 |  |  |  | 172 to 173 |  | 23 | 15 | 15 | 31 |  |  |  |  |
| CN1CCN(Cc2ccc(N/C=C3\C(=O)NC(=O)c4ccccc43)cc2)CC1 [Example 20] | 18.5 |  | 6.7 | > 26 | 231 to 232 |  |  | 10 | 14 |  |  |  |  |  |
| O=C1NC(=O)c2ccccc2/C1=C/Nc1ccc(-c2ccccc2)cc1 [Example 21, (4Z)-4-[(1,1′-Biphenyl-4-ylamino)methylene]isoquinoline-1,3(2H,4H)-dione] | 19.7 |  |  |  | 261 to 262 |  | > 50 | > 50 | > 50 | > 50 |  |  |  |  |
| (4E)-4-(2,3-dimethoxybenzylidene)isoquinoline-1,3(2H,4H)-dione-(4Z)-4-(2,3-dimethoxybenzylidene)isoquinoline-1,3(2H,4H)-dione (1:1) [Example 9] |  | > 32 | > 50 | > 32 |  | 15.1 |  |  |  |  | 6.8 | 2.5 | 9.7 | 48 |
| (4E)-4-[4-(dimethylamino)benzylidene]isoquinoline-1,3(2H,4H)-dione-(4Z)-4-[4-(dimethylamino)benzylidene]isoquinoline-1,3(2H,4H)-dione (1:1) [Example 10] |  | > 34 | > 50 | > 34 |  | 23.6 |  |  |  |  | 5.9 | 2.3 | 12.5 | > 50 |

Now from value to molecule, other results behind:

| IC50 ([1]; Homo sapiens, Skut1B) [µM] | IC50 [2] [µM] | IC50 [3] [µM] | IC50 [6] [µM] | melting point [°C] | IC50 [1] [µM] | Molecule | IC50 ([4]; Homo sapiens, LoVo, 72 h) [µM] | IC50 ([5]; Homo sapiens, HCT-116, 72 h) [µM] | IC50 ([7]; Homo sapiens, MCF7, 72 h) [µM] | IC50 ([8]; Homo sapiens, BT-474, 144 h) [µM] | IC50 [4] [µM] | IC50 [5] [µM] | IC50 [7] [µM] | IC50 [8] [µM] |
| --- | --- | --- | --- | --- | --- | --- | --- | --- | --- | --- | --- | --- | --- | --- |
| 7.8 |  |  | > 50 | 222 to 225 |  | O=C1NC(=O)c2ccc(Br)cc2/C1=C/Nc1ccc(CN2CCCCC2)cc1 [Example 24, (4Z)-6-Bromo-4-{[(4-piperidin-1-ylmethyl)phenyl]amino}methyleneisoquinoline-1,3(2H,4H)-dione] | 6 | 5 | 3.1 | 4.8 |  |  |  |  |
| 3.6 | > 50 | 1.4 | > 50 |  |  | CN1CCN(c2ccc(N/C=C3\C(=O)NC(=O)c4ccc(Br)cc43)cc2)CC1 [Example 27, (4Z)-6-Bromo-4-({[4-(4-methylpiperazin-1-yl)phenyl}amino}methylene)isoquinoline-1,3(2H,4H)-dione] | 3.8 | 3.1 | 3 | 3.1 |  |  |  |  |
| 33 |  |  |  | 260 to 261 |  | COc1cc(CN/C=C2\C(=O)NC(=O)c3ccc(Br)cc32)ccc1O [Example 28, (4Z)-6-Bromo-4-{[(4-hydroxy-3-methoxybenzyl)amino]methylene}isoquinoline-1,3(2H,4H)-dione] | > 50 | 28 | > 50 | 39 |  |  |  |  |
| 3.3 | > 50 | 11 | 7.2 |  |  | CN1CCN(c2ccc(N/C=C3\C(=O)NC(=O)c4ccc([N+](=O)[O-])cc43)cc2)CC1 [Example 33, (4Z)-6-Nitro-4-({[4-(4-methylpiperazin-1-yl)phenyl}amino}methylene)isoquinoline-1,3(2H,4H)-dione] | 3.2 | 3.3 | 11 | 5.2 |  |  |  |  |
| 15 |  |  |  | 219 to 220 |  | CC(C)(C)OC(=O)N1CCN(Cc2ccc(N/C=C3\C(=O)NC(=O)c4ccccc43)cc2)CC1 [Example 34] | > 50 | 14 | 38 | 25 |  |  |  |  |
| 11 |  |  |  | 170 to 171 |  | O=C1NC(=O)c2ccc(Br)cc2/C1=C/Nc1ccccc1CN1CCCCC1 [Example 41, (4Z)-6-Bromo-4-({[2-(piperidin-1-ylmethyl)phenyl}amino)methylene]isoquinolin-1,3(2H,4H)-dione] | 49 | 39 | 13 | 25 |  |  |  |  |
| 3.5 |  |  |  | 242 to 243 |  | O=C1NC(=O)c2cc(Br)ccc2/C1=C/Nc1ccc(CN2CCCCC2)cc1 [Example 44, (4Z)-7-Bromo-4-({[4-(Piperidin-1-ylmethyl)phenyl]amino}methylene)isoquinoline-1,3(2H,4H)-dione] | 4 | 3.6 | 6.6 | 4.6 |  |  |  |  |
| 31 | 47 |  | > 50 |  |  | CN1CCN(c2ccc(N/C=C3\C(=O)NC(=O)c4cc(Br)ccc43)cc2)CC1 [Example 45, (4Z)-7-Bromo-4-({[4-(4-methylPiperzin-1-yl)phenyl]amino}methylene)isoquinoline-1,3(2H,4H)-dione] | 33 | 5 | 18.8 | 19 |  |  |  |  |
| 4.4 | 13 | 42 | > 32 |  |  | O=C1NCc2ccccc2/C1=C/Nc1ccc(-c2c[nH]cn2)cc1 [compound 3] | 12 | 7.8 | 11 | 20 |  |  |  |  |
| 4.9 | 1.4 | > 50 | > 50 |  |  | O=C1NC(=O)c2ccc(Br)cc2/C1=C/NCc1cccnc1 [compound 30] | 14 | 9.2 | 15 | 31 |  |  |  |  |
